{"source": "paper PMC6934184", "about": "“Selective DNA-PKcs inhibition extends the therapeutic index of localized radiotherapy and chemotherapy” (The Journal of Clinical Investigation, 2019)", "target": "T1, KIT T670I (Homo sapiens, UniProt P10721, T670I)", "T1 construct": "purchased Thermo Fisher Scientific (Life Technologies) SelectScreen", "T1 sequence (P10721 26-976 T670I)": "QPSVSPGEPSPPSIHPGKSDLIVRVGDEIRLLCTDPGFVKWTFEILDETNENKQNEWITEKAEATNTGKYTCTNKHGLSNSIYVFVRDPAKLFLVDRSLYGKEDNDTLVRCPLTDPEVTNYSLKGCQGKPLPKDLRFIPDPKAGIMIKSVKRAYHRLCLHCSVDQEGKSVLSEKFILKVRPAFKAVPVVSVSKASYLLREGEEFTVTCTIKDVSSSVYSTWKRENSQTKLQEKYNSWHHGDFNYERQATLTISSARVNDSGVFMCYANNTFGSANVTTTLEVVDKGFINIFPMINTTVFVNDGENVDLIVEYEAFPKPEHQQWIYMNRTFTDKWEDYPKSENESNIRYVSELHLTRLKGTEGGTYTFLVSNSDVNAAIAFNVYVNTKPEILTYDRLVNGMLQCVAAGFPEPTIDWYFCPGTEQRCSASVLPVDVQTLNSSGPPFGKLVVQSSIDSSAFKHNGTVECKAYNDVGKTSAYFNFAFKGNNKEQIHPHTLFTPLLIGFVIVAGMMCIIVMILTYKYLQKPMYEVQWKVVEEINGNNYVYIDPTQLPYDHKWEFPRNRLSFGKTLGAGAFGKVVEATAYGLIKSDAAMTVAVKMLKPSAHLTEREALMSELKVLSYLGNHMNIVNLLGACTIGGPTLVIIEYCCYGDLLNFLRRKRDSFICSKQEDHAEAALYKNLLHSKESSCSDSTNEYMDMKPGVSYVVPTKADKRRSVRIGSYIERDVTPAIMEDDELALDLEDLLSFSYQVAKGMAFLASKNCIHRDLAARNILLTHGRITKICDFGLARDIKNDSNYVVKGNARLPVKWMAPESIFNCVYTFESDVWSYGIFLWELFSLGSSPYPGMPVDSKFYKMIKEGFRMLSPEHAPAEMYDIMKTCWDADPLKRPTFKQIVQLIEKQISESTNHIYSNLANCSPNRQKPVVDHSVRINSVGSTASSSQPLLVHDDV", "assay": "SelectScreen Z'LYTE", "format": "biochemical", "in_short": "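SelectScreen broad panel; activity (Z'LYTE, Adapta) plus binding formats. ATP: Km app for CSF1R Z'LYTE; 10 for CAMK1 Adapta. Readout = % per kinase.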"}
{"smiles": "CN(C(=O)CN1CCOCC1)c1ccc2sc3c(-c4cccc5c(=O)cc(N6CC7CCC(C6)O7)oc45)cccc3c2c1", "note": "[NU5455]", "values": [{"measurement": "inhibition at 1 µM", "value": -24.4, "unit": "%"}]}
